According to the NIST ThermoML archive (doi:10.1016/j.jct.2004.09.022):
Numbers after ± are expanded uncertainties.

Assays:
[1] = Liquid; for mass density: 293.15 K, 101.33 kPa
[2] = refractive index (Na D-line) (dimensionless); conditions: 293.15 K; 101.33 kPa; Liquid; Standard Abbe refractometry

Row | mass density ([1]; Vibrating tube method) | Normal boiling temperature ([1]; Fisher boiling point apparatus) | refractive index [2] | mass density [1] | Normal boiling temperature [1] | SMILES
1 | 808.4 ± 2.2 kg/m3 | 131.40 ± 0.2 °C | 1.4075 ± 0.0008 |  |  | CC(C)CCO [3-methylbutan-1-ol]
2 |  |  | 1.3324 ± 0.0008 | 999.9 ± 0.6 kg/m3 | 100.1 ± 0.2 °C | O [water]
